Measurements: ChEMBL document CHEMBL5303765, “Data for DCP probe BAY-7081” (2023)

Key:
[1] = target: cGMP-inhibited 3',5'-cyclic phosphodiesterase 3B (Homo sapiens, UniProt Q13370); experiment: 3H-cAMP and 3H-cGMP Scintillation Proximity Assay (PDE3B)
[2] = target: Sodium/potassium-transporting ATPase (Sus scrofa) (UniProt P05027+P05024+D2WKD8+D2WKD7+F1ST41); experiment: ATPase, Na+/K+, Heart, Pig Eurofins Panlabs panel; type: protein-complex assay; settings: Compound concentration 10.0 uM
[3] = target: Polyunsaturated fatty acid lipoxygenase ALOX15 (Homo sapiens) (UniProt P16050); experiment: Lipoxygenase 15-LO Eurofins Panlabs panel; settings: Compound concentration 10.0 uM
Sequence of Polyunsaturated fatty acid lipoxygenase ALOX15 (Homo sapiens) (P16050 whole entry): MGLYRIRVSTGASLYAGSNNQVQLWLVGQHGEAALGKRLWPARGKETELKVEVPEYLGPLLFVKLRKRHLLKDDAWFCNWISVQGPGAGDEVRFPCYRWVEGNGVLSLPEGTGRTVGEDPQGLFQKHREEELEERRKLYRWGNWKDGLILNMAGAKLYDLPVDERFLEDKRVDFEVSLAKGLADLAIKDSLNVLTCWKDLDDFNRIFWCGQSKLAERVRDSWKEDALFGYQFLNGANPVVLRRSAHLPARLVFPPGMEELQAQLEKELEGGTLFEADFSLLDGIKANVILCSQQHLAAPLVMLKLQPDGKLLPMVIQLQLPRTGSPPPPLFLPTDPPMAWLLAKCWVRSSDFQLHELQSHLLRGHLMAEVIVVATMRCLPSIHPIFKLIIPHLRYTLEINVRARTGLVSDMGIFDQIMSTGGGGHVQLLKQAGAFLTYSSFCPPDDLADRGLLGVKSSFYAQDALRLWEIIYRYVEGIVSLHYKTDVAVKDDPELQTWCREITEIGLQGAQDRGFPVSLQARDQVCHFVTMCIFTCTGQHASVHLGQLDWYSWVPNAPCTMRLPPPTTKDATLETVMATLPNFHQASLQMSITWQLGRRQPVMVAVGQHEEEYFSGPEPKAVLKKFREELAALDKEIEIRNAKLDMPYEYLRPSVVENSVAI

[4] = target: cGMP-specific 3',5'-cyclic phosphodiesterase (Homo sapiens, UniProt O76074); experiment: Phosphodiesterase PDE5 Eurofins Panlabs panel; settings: Compound concentration 10.0 uM
[5] = target: Thromboxane-A synthase (Homo sapiens) (UniProt P24557); experiment: Thromboxane Synthase Eurofins Panlabs panel; settings: concentration not given here
Sequence of Thromboxane-A synthase (Homo sapiens) (P24557 whole entry): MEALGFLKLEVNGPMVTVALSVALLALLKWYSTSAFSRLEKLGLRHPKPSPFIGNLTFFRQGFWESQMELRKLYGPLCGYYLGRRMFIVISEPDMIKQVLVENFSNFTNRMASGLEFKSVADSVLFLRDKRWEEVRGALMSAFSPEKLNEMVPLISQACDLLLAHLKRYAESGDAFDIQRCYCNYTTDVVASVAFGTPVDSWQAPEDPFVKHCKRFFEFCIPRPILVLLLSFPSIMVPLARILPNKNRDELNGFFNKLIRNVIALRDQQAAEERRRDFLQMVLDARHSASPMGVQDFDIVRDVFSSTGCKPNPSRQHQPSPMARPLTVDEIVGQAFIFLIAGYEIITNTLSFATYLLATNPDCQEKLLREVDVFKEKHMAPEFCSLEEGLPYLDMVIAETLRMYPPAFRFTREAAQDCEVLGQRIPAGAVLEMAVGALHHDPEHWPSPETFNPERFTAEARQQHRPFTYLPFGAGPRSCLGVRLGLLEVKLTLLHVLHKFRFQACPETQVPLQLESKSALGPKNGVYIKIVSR

[6] = target: Adenosine receptor A1 (Homo sapiens) (UniProt P30542); experiment: Adenosine A1 Eurofins Panlabs panel; settings: Compound concentration 10.0 uM
Sequence of Adenosine receptor A1 (Homo sapiens) (P30542 whole entry): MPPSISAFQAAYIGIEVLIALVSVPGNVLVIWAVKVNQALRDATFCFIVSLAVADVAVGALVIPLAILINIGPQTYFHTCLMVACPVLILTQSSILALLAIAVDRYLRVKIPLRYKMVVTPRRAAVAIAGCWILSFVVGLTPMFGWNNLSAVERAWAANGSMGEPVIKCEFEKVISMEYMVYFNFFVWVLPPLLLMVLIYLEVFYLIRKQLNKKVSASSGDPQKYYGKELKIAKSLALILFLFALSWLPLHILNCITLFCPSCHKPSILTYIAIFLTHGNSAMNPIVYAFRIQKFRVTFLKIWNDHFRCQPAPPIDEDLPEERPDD

[7] = target: Adenosine receptor A2a (Homo sapiens) (UniProt P29274); experiment: Adenosine A2A Eurofins Panlabs panel; settings: Compound concentration 10.0 uM
Sequence of Adenosine receptor A2a (Homo sapiens) (P29274 whole entry): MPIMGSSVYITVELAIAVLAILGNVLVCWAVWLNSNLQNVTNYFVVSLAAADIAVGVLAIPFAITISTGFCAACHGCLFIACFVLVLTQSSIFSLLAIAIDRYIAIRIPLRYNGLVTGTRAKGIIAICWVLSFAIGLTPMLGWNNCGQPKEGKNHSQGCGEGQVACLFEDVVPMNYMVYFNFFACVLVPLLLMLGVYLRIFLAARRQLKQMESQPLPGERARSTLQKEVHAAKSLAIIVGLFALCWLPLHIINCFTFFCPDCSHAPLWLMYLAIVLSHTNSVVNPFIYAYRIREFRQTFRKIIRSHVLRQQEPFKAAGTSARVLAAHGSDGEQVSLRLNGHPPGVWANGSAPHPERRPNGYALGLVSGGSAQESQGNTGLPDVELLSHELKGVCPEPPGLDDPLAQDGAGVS

[8] = target: Androgen receptor (Homo sapiens) (UniProt P10275); experiment: Androgen (Testosterone) Eurofins Panlabs panel; settings: Compound concentration 10.0 uM
Sequence of Androgen receptor (Homo sapiens) (P10275 whole entry): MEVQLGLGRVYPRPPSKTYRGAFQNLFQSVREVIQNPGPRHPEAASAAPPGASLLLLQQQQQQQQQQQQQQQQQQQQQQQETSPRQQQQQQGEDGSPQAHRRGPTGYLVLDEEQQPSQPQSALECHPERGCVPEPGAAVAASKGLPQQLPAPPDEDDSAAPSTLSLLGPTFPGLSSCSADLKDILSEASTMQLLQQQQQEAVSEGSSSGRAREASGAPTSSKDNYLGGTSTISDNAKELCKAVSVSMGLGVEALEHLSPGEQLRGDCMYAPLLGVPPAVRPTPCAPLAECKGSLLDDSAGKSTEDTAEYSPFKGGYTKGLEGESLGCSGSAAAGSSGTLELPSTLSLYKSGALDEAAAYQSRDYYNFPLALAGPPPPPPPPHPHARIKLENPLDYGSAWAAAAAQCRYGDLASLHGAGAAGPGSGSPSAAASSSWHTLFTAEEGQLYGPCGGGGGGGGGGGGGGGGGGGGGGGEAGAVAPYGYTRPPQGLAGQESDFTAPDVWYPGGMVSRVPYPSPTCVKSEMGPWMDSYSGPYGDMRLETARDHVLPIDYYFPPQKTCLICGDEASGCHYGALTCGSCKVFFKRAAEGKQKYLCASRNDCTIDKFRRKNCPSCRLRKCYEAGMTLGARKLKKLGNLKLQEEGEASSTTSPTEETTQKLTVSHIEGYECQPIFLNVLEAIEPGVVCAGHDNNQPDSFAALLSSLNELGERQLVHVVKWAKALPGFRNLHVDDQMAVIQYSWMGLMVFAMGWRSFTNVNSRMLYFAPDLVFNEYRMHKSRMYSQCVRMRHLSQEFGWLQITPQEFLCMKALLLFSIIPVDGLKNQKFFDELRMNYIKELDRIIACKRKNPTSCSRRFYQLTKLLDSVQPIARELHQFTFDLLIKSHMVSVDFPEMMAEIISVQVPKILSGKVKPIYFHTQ

[9] = target: Type-2 angiotensin II receptor (Homo sapiens) (UniProt P50052); experiment: Angiotensin AT2 Eurofins Panlabs panel; settings: Compound concentration 10.0 uM
[10] = target: B2 bradykinin receptor (Homo sapiens) (UniProt P30411); experiment: Bradykinin B2 Eurofins Panlabs panel; settings: Compound concentration 10.0 uM
Sequence of B2 bradykinin receptor (Homo sapiens) (P30411 whole entry): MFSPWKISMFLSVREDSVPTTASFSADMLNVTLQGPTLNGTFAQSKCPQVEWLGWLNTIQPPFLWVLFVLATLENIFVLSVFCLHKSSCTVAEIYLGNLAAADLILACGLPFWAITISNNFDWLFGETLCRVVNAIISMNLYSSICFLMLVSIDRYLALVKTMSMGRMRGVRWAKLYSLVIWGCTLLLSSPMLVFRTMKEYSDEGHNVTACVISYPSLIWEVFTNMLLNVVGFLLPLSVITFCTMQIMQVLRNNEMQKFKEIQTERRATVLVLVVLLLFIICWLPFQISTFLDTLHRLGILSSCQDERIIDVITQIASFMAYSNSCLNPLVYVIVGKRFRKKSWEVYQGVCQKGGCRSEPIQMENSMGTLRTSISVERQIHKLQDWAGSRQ

[11] = target: D(2) dopamine receptor (Homo sapiens) (UniProt P14416); experiment: Dopamine D2L Eurofins Panlabs panel; settings: Compound concentration 10.0 uM
[12] = target: Glutamate receptor ionotropic, kainate (Rattus norvegicus) (UniProt P22756+Q01812+P42260+P42264+Q63273); experiment: Glutamate, Kainate Eurofins Panlabs panel; type: protein-complex assay; settings: Compound concentration 10.0 uM
[13] = target: Growth hormone secretagogue receptor type 1 (Homo sapiens) (UniProt Q92847); experiment: Growth Hormone Secretagogue (GHS, Ghrelin) Eurofins Panlabs panel; settings: Compound concentration 10.0 uM
Sequence of Growth hormone secretagogue receptor type 1 (Homo sapiens) (Q92847 whole entry): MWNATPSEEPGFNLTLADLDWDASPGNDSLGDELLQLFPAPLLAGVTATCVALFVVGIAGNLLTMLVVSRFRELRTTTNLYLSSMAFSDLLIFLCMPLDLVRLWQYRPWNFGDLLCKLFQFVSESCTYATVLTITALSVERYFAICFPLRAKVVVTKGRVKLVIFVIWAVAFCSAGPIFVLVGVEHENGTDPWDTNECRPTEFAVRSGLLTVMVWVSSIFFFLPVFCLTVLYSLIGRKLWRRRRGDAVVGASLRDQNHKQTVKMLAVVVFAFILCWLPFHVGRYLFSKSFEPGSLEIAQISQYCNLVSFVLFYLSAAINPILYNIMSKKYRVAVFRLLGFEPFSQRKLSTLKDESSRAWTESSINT

[14] = target: Histamine H1 receptor (Homo sapiens) (UniProt P35367); experiment: Histamine H1 Eurofins Panlabs panel; settings: Compound concentration 10.0 uM
[15] = target: T1, Muscarinic acetylcholine receptor M1 (Homo sapiens) (UniProt P11229); experiment: Muscarinic M1 Eurofins Panlabs panel; settings: Compound concentration 10.0 uM
T1 sequence (whole entry): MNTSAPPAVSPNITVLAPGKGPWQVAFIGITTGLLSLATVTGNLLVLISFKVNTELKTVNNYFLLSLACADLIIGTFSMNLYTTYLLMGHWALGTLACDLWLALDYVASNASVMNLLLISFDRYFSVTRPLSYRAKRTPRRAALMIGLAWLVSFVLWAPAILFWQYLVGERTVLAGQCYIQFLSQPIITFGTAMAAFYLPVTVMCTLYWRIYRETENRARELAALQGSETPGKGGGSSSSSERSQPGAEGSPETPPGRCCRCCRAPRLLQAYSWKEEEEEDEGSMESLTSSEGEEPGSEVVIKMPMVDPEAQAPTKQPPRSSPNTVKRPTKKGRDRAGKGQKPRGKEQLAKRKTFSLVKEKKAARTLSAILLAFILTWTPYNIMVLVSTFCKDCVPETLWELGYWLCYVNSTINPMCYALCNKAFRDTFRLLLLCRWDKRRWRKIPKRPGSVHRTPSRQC

[16] = target: T2, Muscarinic acetylcholine receptor M2 (Homo sapiens) (UniProt P08172); experiment: Muscarinic M2 Eurofins Panlabs panel; settings: Compound concentration 10.0 uM
T2 sequence (whole entry): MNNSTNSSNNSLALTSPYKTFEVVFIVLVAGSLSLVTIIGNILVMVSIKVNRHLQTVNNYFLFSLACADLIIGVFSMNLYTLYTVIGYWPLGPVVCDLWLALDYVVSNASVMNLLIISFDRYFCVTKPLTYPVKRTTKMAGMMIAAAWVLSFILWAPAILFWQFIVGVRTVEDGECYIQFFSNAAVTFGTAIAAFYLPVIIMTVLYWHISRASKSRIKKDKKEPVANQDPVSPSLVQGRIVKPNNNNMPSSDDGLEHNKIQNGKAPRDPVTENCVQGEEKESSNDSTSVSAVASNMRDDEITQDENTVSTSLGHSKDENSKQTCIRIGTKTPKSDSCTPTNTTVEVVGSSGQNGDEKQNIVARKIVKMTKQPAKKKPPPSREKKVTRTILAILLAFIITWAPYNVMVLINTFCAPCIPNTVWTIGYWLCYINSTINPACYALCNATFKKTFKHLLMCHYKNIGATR

[17] = target: Progesterone receptor (Homo sapiens) (UniProt P06401); experiment: Progesterone PR-B Eurofins Panlabs panel; settings: Compound concentration 10.0 uM
[18] = target: P2X receptor (Rattus norvegicus) (UniProt P51579+P49653+P51578+Q64663+P47824+P51577+P49654); experiment: Purinergic P2X Eurofins Panlabs panel; type: protein assay; settings: concentration not given here
[19] = target: T3, 5-hydroxytryptamine receptor 3A (Homo sapiens) (UniProt P46098); experiment: Serotonin (5-Hydroxytryptamine) 5-HT3 Eurofins Panlabs panel; settings: Compound concentration 10.0 uM
T3 sequence (whole entry): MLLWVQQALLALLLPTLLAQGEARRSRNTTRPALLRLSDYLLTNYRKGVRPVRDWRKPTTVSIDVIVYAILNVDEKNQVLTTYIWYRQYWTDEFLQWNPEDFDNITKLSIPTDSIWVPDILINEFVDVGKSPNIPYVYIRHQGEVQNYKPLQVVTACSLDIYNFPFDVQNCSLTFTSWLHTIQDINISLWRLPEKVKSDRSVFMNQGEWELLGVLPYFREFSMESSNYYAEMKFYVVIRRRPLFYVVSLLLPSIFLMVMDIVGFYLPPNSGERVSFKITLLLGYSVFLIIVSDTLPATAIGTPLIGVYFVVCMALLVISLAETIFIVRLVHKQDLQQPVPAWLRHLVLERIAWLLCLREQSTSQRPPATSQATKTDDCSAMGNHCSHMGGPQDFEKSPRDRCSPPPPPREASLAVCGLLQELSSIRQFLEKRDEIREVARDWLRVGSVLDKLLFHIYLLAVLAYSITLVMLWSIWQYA

[20] = target: Adenosine Transporter (Cavia porcellus) (UniProt H0V4R7+H0UUG1+H0V3Z5); experiment: Transporter, Adenosine Eurofins Panlabs panel; type: protein assay; settings: Compound concentration 10.0 uM
[21] = target: Neuropeptide Y receptor type 1 (Homo sapiens) (UniProt P25929); experiment: Neuropeptide Y Y1 Eurofins Panlabs panel; settings: Compound concentration 10.0 uM
[22] = target: cGMP-inhibited 3',5'-cyclic phosphodiesterase 3A (Homo sapiens) (UniProt Q14432); experiment: Panlabs assay PDE3A; design: compound concentration 10 uM; settings: at 10 µM
[23] = target: 3',5'-cyclic-AMP phosphodiesterase 4D (Homo sapiens) (UniProt Q08499); experiment: Panlabs assay PDE4D2; design: compound concentration 10 uM; settings: at 10 µM
[24] = target: Phosphodiesterase 6 (Bos taurus) (UniProt P23439+P16586+P11541+P22571+P04972+Q95142); experiment: Panlabs assay PDE6; type: tissue-based; design: compound concentration 10 uM; settings: retina, at 10 µM
[25] = target: cAMP and cAMP-inhibited cGMP 3',5'-cyclic phosphodiesterase 10A (Homo sapiens, UniProt Q9Y233); experiment: Panlabs assay PDE10A2; design: compound concentration 10 uM; settings: at 10 µM

Sequence of cGMP-inhibited 3',5'-cyclic phosphodiesterase 3B (Q13370 whole entry): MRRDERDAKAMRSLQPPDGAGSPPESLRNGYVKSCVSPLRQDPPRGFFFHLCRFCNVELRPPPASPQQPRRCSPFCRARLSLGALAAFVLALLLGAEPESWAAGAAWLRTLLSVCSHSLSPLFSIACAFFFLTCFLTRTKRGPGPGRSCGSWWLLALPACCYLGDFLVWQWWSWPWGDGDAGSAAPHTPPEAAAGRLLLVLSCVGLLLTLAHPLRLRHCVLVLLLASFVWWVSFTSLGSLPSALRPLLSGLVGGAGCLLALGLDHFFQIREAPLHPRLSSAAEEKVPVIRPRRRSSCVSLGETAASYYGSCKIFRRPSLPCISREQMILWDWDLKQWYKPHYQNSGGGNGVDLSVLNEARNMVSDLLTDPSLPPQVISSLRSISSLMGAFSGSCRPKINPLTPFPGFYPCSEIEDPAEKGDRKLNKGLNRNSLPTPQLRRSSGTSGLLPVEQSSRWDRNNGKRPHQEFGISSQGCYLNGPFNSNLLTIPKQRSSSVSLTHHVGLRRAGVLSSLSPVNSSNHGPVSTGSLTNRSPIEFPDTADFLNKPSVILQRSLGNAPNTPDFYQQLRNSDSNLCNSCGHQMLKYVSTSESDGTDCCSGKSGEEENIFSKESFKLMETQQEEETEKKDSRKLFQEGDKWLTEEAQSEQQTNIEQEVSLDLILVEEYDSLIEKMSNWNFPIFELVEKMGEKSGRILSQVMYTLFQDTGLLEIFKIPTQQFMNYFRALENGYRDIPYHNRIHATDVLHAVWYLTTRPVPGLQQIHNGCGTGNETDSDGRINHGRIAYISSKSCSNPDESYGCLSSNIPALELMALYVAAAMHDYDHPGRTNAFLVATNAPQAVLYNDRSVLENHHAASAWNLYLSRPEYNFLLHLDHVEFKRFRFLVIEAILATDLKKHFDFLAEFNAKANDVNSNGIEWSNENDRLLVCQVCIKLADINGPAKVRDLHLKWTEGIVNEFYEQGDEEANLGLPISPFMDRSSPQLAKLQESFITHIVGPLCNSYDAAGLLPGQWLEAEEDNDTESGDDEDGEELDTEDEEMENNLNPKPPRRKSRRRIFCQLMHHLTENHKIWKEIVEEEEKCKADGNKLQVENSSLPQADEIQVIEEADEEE

CCC[C@H]1CNCc2c1[nH]c(=O)c(C#N)c2N1CCC2(CC1)CC2
IC50 [1]: > 10 µM (not active)
inhibition [2]: -1%
inhibition [3]: -6%
inhibition [4]: 59%
inhibition [5]: 0%
inhibition [6]: 16%
inhibition [7]: 2%
inhibition [8]: -6%
inhibition [9]: 3%
inhibition [10]: -4%
inhibition [11]: 12%
inhibition [12]: -0.5%
inhibition [13]: 9%
inhibition [14]: 5%
inhibition [15]: -4%
inhibition [16]: 6.67%
inhibition [17]: 2%
inhibition [18]: 0%
inhibition [19]: 3.75%
inhibition [20]: 4%
inhibition [21]: 15%

CCC[C@@H]1CNCc2c1[nH]c(=O)c(C#N)c2N1CCC2(CC1)CC2
inhibition [22]: -1.3%
inhibition [23]: 19.1%
inhibition [24]: 16.7%
inhibition [25]: 1.6%
